Data on five compounds can be found in patent US20040053424A1, “Continuous-flow homogeneous biochemical assays based on mass spectrometric detection of known ligands” (priority 2000, published 2004).

The target of one test is streptavidin (Streptomyces avidinii, UniProt P22629). The test can be described thus: homogeneous on-line mass spectrometric biochemical assay, streptavidin / fluorescein-biotin reporter. Particulars: for effect of analyte injection on binding of reporter fluorescein-biotin to streptavidin (SIM MS signal at m/z 390): equal concentrations injected, 32 nmol/l streptavidin, 96 nmol/l fluorescein-biotin, FIG. 2. Format: binding. The method, then: Streptavidin is a well-known affinity protein with a high affinity for biotin and biotinylated compounds. To a carrier solution consisting of 10 mmol/L ammonium formate/methanol (90:10, v/v) pumped at a flow rate of 50 μl/min a solution of 32 nmol/l streptavidin dissolved in 10 mmol/L ammonium formate was added at a flow rate of 50 μl/min. The mixture was pumped through a knitted […]. poly(tetrafluoroethylene) reaction coil with an internal volume of 17 μl. Subsequently, a solution of 96 nmol/l fluorescein-biotin dissolved in 10 mmol/L ammonium formate/methanol (90:10, v/v) was added at a flow rate of 100 μl/min. The mixture was then pumped through a knitted […]. poly(tetrafluoroethylene) reaction coil with an internal volume of 33 μl and subsequently introduced into a mass spectrometer equipped with an electrospray ionization (ESI) source. Mass spectrometry was operated in selected-ion monitoring (SIM) in the positive-ion (PI) mode on [M+H]+and on one or more intense fragment ions. The ESI source conditions for the streptavidin/biotin system: source temperature, 80° C.; capillary voltage, 3.2 kV. The sampling cone voltage was 30 and 60 V for biotin and fluorescein-labeled biotin, respectively.
At point 1, only carrier buffer was pumped into the mass spectrometer providing a reference background signal. […] At point 3, the streptavidin pump was switched on.

Test [1] concerns fab fragments of anti-digoxigenin antibodies (fab anti-digoxigenin). The test is described as follows: homogeneous on-line mass spectrometric biochemical assay, fab anti-digoxigenin / digoxigenin reporter. Format: binding. As to conditions: 100 nmol/l fab anti-digoxigenin, 200 nmol/l digoxigenin; FIG. 3, point 4. The protocol:
To a carrier solution consisting of 10 mmol/L ammonium formate/methanol (90:10, v/v) pumped at a flow rate of 50 μl/min a solution of 100 nmol/l fab anti-digoxigenin dissolved in 10 mmol/L ammonium formate was added at a flow rate of 50 μl/min. The mixture was pumped through a knitted 300 μm i.d. poly(tetrafluoroethylene) reaction coil with an internal volume of 65 μl. Subsequently, a solution of 200 nmol/l digoxigenin dissolved in 10 mmol/L ammonium formate/methanol (90:10, v/v) is added at a flow rate of 100 ill/min. The mixture was then pumped through a knitted 300 μm i.d. poly(tetrafluoroethylene) reaction coil with an internal volume of 33 μl and subsequently introduced into a mass spectrometer equipped with an electrospray ionization (ESI) source. Mass spectrometry was operated in selected-ion monitoring (SIM) in the positive-ion (PI) mode on [M+H]+and on one or more intense fragment ions.
At point 1, only carrier buffer was pumped into the mass spectrometer providing a reference background signal. At point 2, the digoxigenin pump was switched on leading to an increase of the selected-ion monitoring MS signal at m/z 408 (the ammonium adduct of digoxigenin). At point 3, the fab anti-digoxigenin pump was switched on.

Sequence of streptavidin (P22629 25-183): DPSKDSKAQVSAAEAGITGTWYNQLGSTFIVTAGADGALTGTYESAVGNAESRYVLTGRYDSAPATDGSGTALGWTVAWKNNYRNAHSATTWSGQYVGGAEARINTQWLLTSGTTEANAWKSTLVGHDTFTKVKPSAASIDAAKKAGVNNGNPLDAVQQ

Regarding `NNC(=O)CCCCCNC(=O)CCCC[C@@H]1SC[C@@H]2NC(=O)N[C@@H]21` [N-biotinyl-6-aminocaprioc hydrazide], the “effect of analyte injection on binding of reporter fluorescein-biotin to streptavidin (SIM MS signal at m/z 390)” value (from here on “effect of analyte injection”) on streptavidin is recorded as “capable to prevent the binding of the reporter molecule, fluorescein-biotin, to streptavidin”.

Regarding fluorescein-biotin, the “effect of adding streptavidin on free reporter ligand (SIM MS signal at m/z 390)” value at streptavidin (FIG. 1, point 3) is on record as “decrease of the concentration of free fluorescein-biotin”.

Regarding `N[C@@H](CCCCNC(=O)CCCC[C@@H]1SC[C@@H]2NC(=O)N[C@@H]21)C(=O)O` [N-biotin-L-lysine], the “effect of analyte injection” value on streptavidin was “capable to prevent the binding of the reporter molecule, fluorescein-biotin, to streptavidin”.

For `O=C(O)CCCC[C@@H]1SC[C@@H]2NC(=O)N[C@@H]21` [biotin], the “effect of injection on free streptavidin binding sites / free fluorescein-biotin concentration (SIM MS signal at m/z 390)” value on streptavidin (FIG. 1, point 4) was “decrease of free streptavidin binding sites and an increase of the free fluorescein-biotin concentration”. Moreover, the “effect of analyte injection” value on streptavidin was “capable to prevent the binding of the reporter molecule, fluorescein-biotin, to streptavidin”.

Regarding `C[C@H]1O[C@@H](O[C@H]2[C@@H](O)C[C@H](O[C@H]3[C@@H](O)C[C@H](O[C@H]4CC[C@@]5(C)[C@H](CC[C@@H]6[C@@H]5C[C@@H](O)[C@]5(C)[C@@H](C7=CC(=O)OC7)CC[C@]65O)C4)O[C@@H]3C)O[C@@H]2C)C[C@H](O)[C@@H]1O` [digoxin], the “effect of injection on free fab anti-digoxigenin binding sites / free digoxigenin concentration (SIM MS signal at m/z 408)” value in test [1] is “decrease of free fab anti-digoxigenin binding sites and an increase of the free digoxigenin concentration”.
